Measured values from patent US9428460B2, “N-[4-(quinolin-4-yloxy)cyclohexyl(methyl)](hetero)arylcarboxamides as androgen receptor antagonists, production and use thereof as medicinal products” (BAYER PHARMA AKTIENGESELLSCHAFT, priority 2012, dated 2016).

Assays:
Assay type in all cases: cell-based
LAPC-4 cells = experiment: Proliferation assay with LAPC-4 cells; conditions: Homo sapiens, LAPC4, 168 h; in the presence of 1×10^−9 M R1881, seven days, AlamarBlue; read-out: IC50 LAPC-4 cell proliferation
Experimental: LAPC-4 cells (Klein et al., Nat Med. 3(4): 402-8, 1997) were plated out at a density of 4000 cells per well of a 96-well cell culture plate in RMPI 1640 medium (F1275, Biochrom AG) that contained activated charcoal-treated calf serum (FCS Serum Gold, PAA Laboratories) at a concentration of 10% (v/v). On the next day the cells were treated with the test substances in concentrations from 1×10^−8 to 1×10^−10 M in the presence of 1×10^−9 M R1881. Cell proliferation was determined seven days later after incubation for 2 hours with AlamarBlue (DAL1100, Invitrogen) (Nakayama et al., J Immunol Methods, 204(2): 205-8, 1997). The fluorescence values obtained were normalized, wherein 100% corresponded to the effect of the unstimulated control (without R1881), and 0% corresponded to the effect of the stimulated control (R1881 plus DMSO instead of test substance). The IC50 value was determined by regression analysis based on a four-parameter equation (minimum, maximum, IC50, Hill coefficient; Y=Max+(Min−Max)/(1+(X/IC50)^Hill)).

[1] = target: human androgen receptor (full length, wild-type form) (Homo sapiens (Human), UniProt P10275); experiment: Transactivation assay for the wild-type androgen receptor (PC-3 cells, MMTV-luciferase reporter); conditions: in the presence of R1881, 16 hours
human androgen receptor (full length, wild-type form), sequence (P10275 whole entry): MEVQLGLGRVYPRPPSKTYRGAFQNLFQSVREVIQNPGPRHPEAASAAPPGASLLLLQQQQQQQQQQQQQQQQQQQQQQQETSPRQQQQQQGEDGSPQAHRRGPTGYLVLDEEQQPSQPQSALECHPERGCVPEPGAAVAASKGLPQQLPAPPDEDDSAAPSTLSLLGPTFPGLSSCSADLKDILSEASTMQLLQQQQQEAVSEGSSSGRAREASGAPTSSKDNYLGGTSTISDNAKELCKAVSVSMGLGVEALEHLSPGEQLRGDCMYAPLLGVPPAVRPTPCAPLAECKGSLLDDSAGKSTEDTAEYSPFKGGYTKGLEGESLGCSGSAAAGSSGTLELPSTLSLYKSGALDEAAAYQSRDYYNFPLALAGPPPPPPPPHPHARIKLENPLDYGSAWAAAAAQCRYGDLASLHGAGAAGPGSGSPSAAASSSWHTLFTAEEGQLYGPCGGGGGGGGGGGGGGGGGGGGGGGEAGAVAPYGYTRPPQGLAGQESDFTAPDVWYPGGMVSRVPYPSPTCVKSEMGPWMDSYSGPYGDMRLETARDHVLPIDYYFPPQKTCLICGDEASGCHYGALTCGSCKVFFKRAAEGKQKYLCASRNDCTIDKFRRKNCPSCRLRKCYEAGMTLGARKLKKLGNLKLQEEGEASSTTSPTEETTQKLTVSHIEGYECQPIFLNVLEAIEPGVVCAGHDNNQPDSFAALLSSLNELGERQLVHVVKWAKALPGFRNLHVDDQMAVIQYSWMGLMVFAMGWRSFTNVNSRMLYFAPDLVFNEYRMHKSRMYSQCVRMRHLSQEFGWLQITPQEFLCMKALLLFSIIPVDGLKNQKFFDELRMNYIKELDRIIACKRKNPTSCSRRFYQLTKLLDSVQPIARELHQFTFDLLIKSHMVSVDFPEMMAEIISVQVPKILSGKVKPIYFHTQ
Description: For determining the androgen receptor-dependent transcription, a cellular assay system was used, consisting of PC-3 cells (Kaighn et al., Invest. Urol. 17: 16-23, 1979), which express the human androgen receptor stably and recombinantly (full length, wild-type form, see Swiss-Prot Acc. No. P10275, Entry Version 159, Sequence Version 2). In addition, these PC3 cells contain a stably integrated reporter gene plasmid, which is based on the commercially available plasmid pGL4.14 (#E6691, Promega Corporation, Madison, Wis., USA) and contains the luciferase gene from the American firefly (Photinus pyralis) under the control of the MMTV promoter (Cato et al., EMBO J. 6: 363-368, 1987). These cells were propagated in routine cell culture at 37° C. and 5% CO2 in a medium containing 90% RPMI 1640 (Invitrogen GmbH, Darmstadt, Germany), 100 U penicillin, 100 μg/ml streptomycin (Invitrogen), 4 mM L-glutamine (Invitrogen), 10% fetal calf serum (FCS Serum Gold, PAA Laboratories GmbH, Cölbe, Germany), 600 μg/ml Geneticin (G418-sulphate, Invitrogen) and 10 μg/ml puromycin (Sigma Aldrich GmbH, Germany).
For carrying out the transactivation assays, approx. 1000 cells per well were plated out in a 384-well cell culture plate in a medium that contained activated charcoal-treated calf serum (FCS Serum Gold, PAA Laboratories) at a concentration of 5% (v/v). The test substances were added in a concentration series from 5.12×10^−12 to 1×10^−5 M in the presence of […] R1881 (methyltrienolone). The test plates were incubated overnight at 37° C. and 5% CO2. After 16 hours, 15 μl of Steady Glo Lysis and Detection reagent (E2550, Promega Corporation, Madison, Wis., USA) was added per well and the luminescence was read in a Topcount Luminometer (PerkinElmer, Waltham, Mass., USA) for 4 seconds per well. The luminescence values obtained were normalized, wherein 100% corresponded to the effect of the unstimulated control (without R1881), and 0% corresponded to the effect of the stimulated control (R1881 plus DMSO instead of test substance). The IC50 value was determined by regression analysis based on a four-parameter equation (minimum, maximum, IC50, Hill coefficient; Y=Max+(Min−Max)/(1+(X/IC50)^Hill)).

LNCaP cells = experiment: Proliferation assay with LNCaP cells; conditions: Homo sapiens, 168 h, in the presence of 1×10^−10 M R1881, seven days, AlamarBlue, read-out: IC50 LNCaP cell proliferation
Experimental: LNCaP cells (Horoszewicz et al., in “Models for Prostate Cancer” (ed. G. P. Murphy), Alan R. Liss, New York 1981, p. 115-132; Horoszewicz et al., Cancer Res. 43: 1809-1818, 1983) were plated out at a density of 2000 cells per well of a 96-well cell culture plate in RMPI 1640 medium (F1275, Biochrom AG), which contained activated charcoal-treated calf serum (FCS Serum Gold, PAA Laboratories) at a concentration of 5% (v/v). Three days later the cells were treated with the test substances in concentrations from 1×10^−8 to 1×10^−10 M in the presence of 1×10^−10 M R1881. Cell proliferation was determined seven days later after incubation for 2 hours with AlamarBlue (DAL1100, Invitrogen) (Nakayama et al., J Immunol Methods, 204(2): 205-8, 1997). The fluorescence values obtained were normalized, wherein 100% corresponded to the effect of the unstimulated control (without R1881), and 0% corresponded to the effect of the stimulated control (R1881 plus DMSO instead of test substance). The IC50 value was determined by regression analysis based on a four-parameter equation (minimum, maximum, IC50, Hill coefficient; Y=Max+(Min−Max)/(1+(X/IC50)^Hill)).

IC50 [1]: 52 nM
IC50 (LNCaP cells): 28 nM
SMILES: N#Cc1cccc2c(O[C@H]3CC[C@H](NC(=O)c4cccc(F)c4)CC3)ccnc12 [Example 23, N-{trans-4-[(8-cyanoquinolin-4-yl)oxy]cyclohexyl}-3-fluorobenzamide]
IC50 (LAPC-4 cells): 86 nM
